“And” between values parts separate entries of the source, which are not always exact repeats. Equal entries are not always repeated.
Molecular target: T1, GPR73 (prokineticin 1 receptor) (Homo sapiens, UniProt Q8TCW9)
T1 construct: expressed in transfected cells; host or cells: HEK 293
Assay: PK1 functional assay: Ca2+ mobilization screening for PK1 antagonists on the FLIPR
Assay type: cell-based
Conditions: HEK 293 GPR73 cells, multiple values = multiple testing; for inhibition at 10 µM: HEK293, 10 μM compound, read-out: Ca^2+ Mobilization % Inh @ 10 μM; for IC50: PK1 ligand preparation at its EC50, read-out: Ca^2+ Mobilization IC50; for Ca^2+ Mobilization % Inh @ 10 μM: 10 μM compound
In short: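 HEK293 cells expressing human GPR73 were loaded with Calcium Plus dye, then on FLIPR given compound for 4 min 15 s before PK1 ligand at its predetermined EC50. Baseline-subtracted fluorescence over 1 min 45 s gave percent inhibition versus maximal signal; IC50 fitted.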

T1 sequence (Q8TCW9 whole entry, species assumed): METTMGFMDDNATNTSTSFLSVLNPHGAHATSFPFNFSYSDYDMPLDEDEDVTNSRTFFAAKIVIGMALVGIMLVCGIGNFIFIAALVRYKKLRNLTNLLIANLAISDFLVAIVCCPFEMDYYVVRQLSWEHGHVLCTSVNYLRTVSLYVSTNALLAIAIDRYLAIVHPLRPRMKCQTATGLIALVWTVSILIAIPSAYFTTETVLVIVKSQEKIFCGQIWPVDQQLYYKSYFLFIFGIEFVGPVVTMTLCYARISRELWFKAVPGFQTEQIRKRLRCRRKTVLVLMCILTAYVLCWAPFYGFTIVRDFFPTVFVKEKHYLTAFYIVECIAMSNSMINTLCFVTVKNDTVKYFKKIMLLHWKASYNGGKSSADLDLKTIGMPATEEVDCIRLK

Compound | inhibition at 10 µM | IC50 | Ca^2+ Mobilization % Inh @ 10 μM
COc1ccc(Cn2c(=O)nc(NCc3cccnc3N)n(Cc3ccc4occc4c3)c2=O)cc1 [Cpd 126] | 89% | 232 nM | 
COc1ccc(Cn2c(=O)nc(NCc3cccnc3N)n(Cc3ccc4[nH]ccc4c3)c2=O)cc1 [Cpd 127] | 81% | 607 nM | 
COc1ccc(Cn2c(=O)nc(NCc3cnc(C)cc3C)n(Cc3ccc4c(c3)CCO4)c2=O)cc1 [Cpd 128] | 93% | 126 nM and 214 nM | 98%
COc1ccc(Cn2c(=O)nc(NCc3cnc(C)cc3C)n(Cc3ccc4occc4c3)c2=O)cc1 [Cpd 129] | 88% | 120 nM | 
COc1ccc(Cn2c(=O)nc(NCc3cnc(C)cc3C)n(Cc3ccc4[nH]ccc4c3)c2=O)cc1 [Cpd 130] | 92% | 245 nM | 
COc1ccc(Cn2c(=O)nc(NCc3cccnc3N)n(Cc3ccc(S(C)(=O)=O)cc3)c2=O)cc1 [Cpd 131] | 100% | 122 nM | 
COc1ccc(Cn2c(=O)nc(NCc3cnc(C)cc3C)n(Cc3ccc(S(C)(=O)=O)cc3)c2=O)cc1 [Cpd 132] | 79% | 247 nM | 
COc1ccc(Cn2c(NCc3cnc(C)cc3C)nc(=O)n(Cc3ccc4occc4c3)c2=O)cc1 [Cpd 133] | 88% | 582 nM | 
COc1ccc(Cn2c(NCc3cccnc3N)nc(=O)n(Cc3ccc4occc4c3)c2=O)cc1 [Cpd 134] | 86% | 225 nM | 
COc1ccc(Cn2c(=O)nc(NCc3cccnc3N)n(Cc3ccc(OC(C)(C)C)cc3)c2=O)cc1 [Cpd 135] | 94% | 186 nM | 
COc1ccc(Cn2c(=O)nc(NCc3cnc(C)cc3C)n(Cc3ccc(OC)c([N+](=O)[O-])c3)c2=O)cc1 [Cpd 136] | 92% | 15 nM and 34 nM | 102%
COc1ccc(Cn2c(=O)nc(NCc3cccnc3N)n(Cc3ccc(OC)c([N+](=O)[O-])c3)c2=O)cc1 [Cpd 137] | 68% | 1040 nM | 
COc1ccc(Cn2c(=O)nc(NCc3cccnc3N)n(Cc3cccc4[nH]ccc34)c2=O)cc1 [Cpd 138] | 61% | 1510 nM and 2700 nM | 73%
COc1ccc(Cn2c(=O)nc(NCc3cnc(C)cc3C)n(Cc3cccc4[nH]ccc34)c2=O)cc1 [Cpd 139] | 92% |  | 97% and 100%
COc1ccc(Cn2c(=O)nc(NCc3cccnc3N)n(Cc3ccc4sccc4c3)c2=O)cc1 [Cpd 140] | 91% | 192 nM | 
COc1ccc(Cn2c(NCc3cccnc3N)nc(=O)n(CCOc3ccc(F)cc3)c2=O)cc1 [Cpd 141, 6-[(2-Amino-pyridin-3-ylmethyl)-amino]-3-[2-(4-fluoro-phenoxy)-ethyl]-1-(4-methoxy-benzyl)-1H-[1,3,5]triazine-2,4-dione] | 82% | 1130 nM | 
COc1ccc(Cn2c(=O)nc(NCc3cnc(C)cc3C)n(Cc3ccc4sccc4c3)c2=O)cc1 [Cpd 142] | 76% | 387 nM | 
COc1ccc(Cn2c(NCc3cccnc3N)nc(=O)n(Cc3ccccc3OC)c2=O)cc1 [Cpd 143] | 31% | > 10000 nM | 
COc1ccc(Cn2c(NCc3cnc(C)cc3C)nc(=O)n(Cc3ccccc3OC)c2=O)cc1 [Cpd 144] | 36% | > 10000 nM | 
COc1ccc(Cn2c(NCc3cccnc3N)nc(=O)n(Cc3ccc4sccc4c3)c2=O)cc1 [Cpd 145] | 90% | 317 nM | 
COc1ccc(Cn2c(NCc3cnc(C)cc3C)nc(=O)n(Cc3ccc4sccc4c3)c2=O)cc1 [Cpd 146] | 80% | 2140 nM | 
CCCNc1cccc(CNc2nc(=O)n(Cc3ccc(OC)cc3)c(=O)n2Cc2ccc(OC)cc2)n1 [Cpd 147, 1,3-Bis-(4-methoxy-benzyl)-6-[(6-propylamino-pyridin-2-ylmethyl)-amino]-1H-[1,3,5]triazine-2,4-dione] | 99% | 110 nM | 
COc1ccc(Cn2c(NCc3cccc(N)n3)cc(=O)n(Cc3ccc(OC)cc3)c2=O)cc1 [Cpd 148, 6-[(6-Amino-pyridin-2-ylmethyl)-amino]-1,3-bis-(4-methoxy-benzyl)-1H-pyrimidine-2,4-dione] | 86% | 503 nM | 
COc1ccc(Cn2c(=O)nc(NCc3cccnc3N)n(CC3CCC(OC)CC3)c2=O)cc1 (centres unmarked) [Cpd 149] | 86% | 788 nM | 
COc1ccc(Cn2c(=O)nc(NCc3cnc(C)cc3C)n(CC3CCC(OC)CC3)c2=O)cc1 (centres unmarked) [Cpd 150] | 78% | 595 nM | 
COc1ccc(Cn2c(=O)nc(NCc3cccnc3N)n(Cc3ccc(Cl)c(Cl)c3)c2=O)cc1 [Cpd 151] | 60% | 2400 nM | 

Compound | inhibition at 10 µM | IC50 | Ca^2+ Mobilization % Inh @ 10 μM
COc1ccc(Cn2c(=O)nc(NCc3cnc(C)cc3C)n(Cc3ccc(N4C(=O)c5ccccc5C4=O)cc3)c2=O)cc1 [Cpd 152] | 91% | 240 nM | 
COC(=O)CCCn1c(NCc2cnc(C)cc2C)nc(=O)n(Cc2ccc(OC)cc2)c1=O [Cpd 153] | 81% | 703 nM | 
COc1ccc(Cn2c(NCCc3ccccn3)nc(=O)n(Cc3ccc(OC)cc3)c2=O)cc1 [Cpd 154] | 79% | 657 nM and 952 nM | 80%
COc1ccc(Cn2c(=O)nc(NCc3c(C)cc(C)nc3N)n(Cc3cccc4[nH]ccc34)c2=O)cc1 [Cpd 155, 6-[(2-Amino-4,6-dimethyl-pyridin-3-ylmethyl)-amino]-1-(1H-indol-4-ylmethyl)-3-(4-methoxy-benzyl)-1H-[1,3,5]triazine-2,4-dione] | 98% | 2 nM and 7 nM | 100%
Nc1cccc(CNc2nc(=O)n(Cc3ccc(F)cc3)c(=O)n2Cc2ccc(OC(F)F)cc2)n1 [Cpd 156] | 70% | 3220 nM | 
COc1ccc(Cn2c(=O)nc(NCc3c(C)cc(C)nc3N)n(Cc3ccc4c(c3)CCO4)c2=O)cc1 [Cpd 157] | 92% | 4 nM and 11 nM | 96%
Cc1cc(C)c(CNc2nc(=O)n(Cc3ccc(-n4cccn4)cc3)c(=O)n2Cc2ccc(OC(F)F)cc2)cn1 [Cpd 158] | 62% | 3840 nM | 
Cc1cc(C)c(CNc2nc(=O)n(Cc3ccc(I)cc3)c(=O)n2Cc2ccc(OC(F)F)cc2)cn1 [Cpd 159] | 31% | > 10000 nM | 
Cc1cc(C)c(CNc2nc(=O)n(Cc3ccc(F)cc3)c(=O)n2Cc2ccc(OC(F)F)cc2)cn1 [Cpd 160, 1-(4-Difluoromethoxy-benzyl)-6-[(4,6-dimethyl-pyridin-3-ylmethyl)-amino]-3-(4-fluoro-benzyl)-1H-[1,3,5]triazine-2,4-dione] | 71% | 628 nM | 
Cc1ccc(Cn2c(=O)nc(NCc3cnc(C)cc3C)n(Cc3ccc(OC(F)F)cc3)c2=O)cc1 [Cpd 161] | 53% | 4780 nM | 
Cc1cc(C)c(CNc2nc(=O)n(Cc3ccc(C(F)(F)F)cc3)c(=O)n2Cc2ccc(OC(F)F)cc2)cn1 [Cpd 162] | 31% | > 10000 nM | 
Cc1cc(C)c(CNc2nc(=O)n(Cc3ccc(OC(F)F)cc3)c(=O)n2Cc2ccc(OC(F)F)cc2)cn1 [Cpd 163] | 38% | > 10000 nM | 
Cc1cc(C)c(CNc2nc(=O)n(Cc3ccc(C#N)cc3)c(=O)n2Cc2ccc(OC(F)F)cc2)cn1 [Cpd 164] | 64% | 2010 nM | 
COC(=O)c1ccc(Cn2c(=O)nc(NCc3cnc(C)cc3C)n(Cc3ccc(OC(F)F)cc3)c2=O)cc1 [Cpd 165] | 52% | 6150 nM | 
Cc1cc(C)c(CNc2nc(=O)n(CCOc3ccccc3)c(=O)n2Cc2ccc(OC(F)F)cc2)cn1 [Cpd 166] | 73% | 1700 nM | 
Cc1cc(C)c(CNc2nc(=O)n(CCOc3ccc(F)cc3)c(=O)n2Cc2ccc(OC(F)F)cc2)cn1 [Cpd 167] | 65% | 2620 nM | 
Cc1cc(C)c(CNc2nc(=O)n(Cc3ccc(-c4csnn4)cc3)c(=O)n2Cc2ccc(OC(F)F)cc2)cn1 [Cpd 168] | 68% | 1520 nM | 
COc1ccc(Cn2c(CCc3cccnc3)cc(=O)n(Cc3ccc(OC)cc3)c2=O)cc1 [Cpd 169] | 78% | 226 nM and 973 nM | 86%
COc1ccc(Cn2c(=O)nc(NCc3cccnc3N)n(Cc3ccc4cc[nH]c4c3)c2=O)cc1 [Cpd 170] | 96% | 32 nM | 
COc1ccc(Cn2c(=O)nc(NCc3cccnc3N)n(Cc3cccc4cc[nH]c34)c2=O)cc1 [Cpd 171] | 46% | > 10000 nM | 
COc1ccc(Cn2c(=O)nc(NCc3cnc(C)cc3C)n(Cc3cccc4cc[nH]c34)c2=O)cc1 [Cpd 172] | 88% | 515 nM | 
CSc1ccc(Cn2c(=O)nc(NCc3c(C)cc(C)nc3N)n(Cc3ccc(OC(F)F)cc3)c2=O)cc1 [Cpd 173] | 97% | 207 nM | 
Cc1cc(C)c(CNc2nc(=O)n(Cc3ccc4sccc4c3)c(=O)n2Cc2ccc(OC(F)F)cc2)c(N)n1 [Cpd 174] | 87% | 290 nM | 
Cc1cc(C)c(CNc2nc(=O)n(Cc3ccc4occc4c3)c(=O)n2Cc2ccc(OC(F)F)cc2)c(N)n1 [Cpd 175] | 96% | 57 nM and 93 nM | 99%
Cc1cc(C)c(CNc2nc(=O)n(Cc3ccc4c(c3)CCO4)c(=O)n2Cc2ccc(OC(F)F)cc2)c(N)n1 [Cpd 176] | 96% | 23 nM and 48 nM and 130 nM | 98%
CSc1ccc(Cn2c(=O)nc(NCc3cnc(C)cc3C)n(Cc3ccc(OC(F)F)cc3)c2=O)cc1 [Cpd 177] | 79% | 640 nM | 
